# Source: patent publication US7294615B1, “Compounds that associate on the intermolecular level and aggregate bodies that contain them” (priority 1999, dated 2007)
# pIC50, pKd: −log10 of the molar value. Where two headings read alike, the source gives them in different places.
# Columns and labels:
# [1] = test system: influenza virus strain A/NIB/H1N1/89M; assay: FBI test, inhibition of viral adhesion (Table 9); settings: 6'SLN as reference compound (=1)
# [2] = test system: Influenza virus A/NIB/44/90M H3N2; assay: Fetuin binding inhibition (FBI) test, inhibition of viral cell adhesion; settings: for pKd: inhibitor virus complex; for Relative activity: FBI test, Neu5AcαBn as reference compound (=1), specific activity per Neu5Ac group
# [3] = Light scattering, particle size of aggregates; assay type: physicochemical
# Procedure: (§1) The formation of aggregates in solution can be observed by light scattering experiments or by gel permeation chromatography.
# The light scattering experiments were carried out using the following apparatus: Coultronics Coulter N4-MD (He-Ne laser, λ=632.8 nm, measurement of the scattering at an angle of 62.5° to the incident light beam), Spectra-Physics 164 (argon laser, λ=528.7 nm and λ=611.5 nm, measurement of the scattering at an angle of 90° to the incident light beam).
# The investigation into the light scattering of a 50 mM solution of compound (22a) in water was carried out using a Spectra-Physics 164 argon laser (plasma lines λ=528.7 and 611.5 nm), the scattering was measured at an angle of 90° to the incident light beam. The particle size thereby determined was <2.5 nm. 50 μl of 0.8M NaHCO3 solution were added to the resulting solution. The light scattering was measured, as described above, the average particle size thereby determined was 200-400 nm.
# 50 μl of a 0.8M HCl was added to the resulting solution, and the sample was investigated by means of light scattering, as described above. The particle size thereby determined was <2.5 nm.
# PK15 cells = settings: read-out: Concentration at which 50% inhibition of cytotoxicity was achieved, human serum, 10% rabbit serum complement
# [4] = test system: Influenza virus A/Duck/Alberta/60/67 H12N5; assay type: binding
# [5] = Gel permeation chromatography of aggregates; assay type: physicochemical; settings: for Aggregate, %: determined by gel permeation chromatography
# Source text: as §1
# The compound of the general formula (I) Neu5Ac-Gab-ACm-Ad-Gly5-NHCH2-]4C (m=1-3) associates at room temperature in aqueous and organic solvents.
# Silica gel 60 (40-63 μm) (Merck) was used for column chromatography. Sephadex of types LH-20, G-10, G-25 (Pharmacia, Sweden) and TSK-4000 (HPLC) were used for gel permeation chromatography.
molecule,measurement,setting,value
{[Neu5Acα-OCH2(p-C6H4)NHCOCH2NH—CO(CH2)4CO—(NHCH2CO)7—NHCH2—]4C} [Compound 48],Relative activity,[1],<0.2
same,pKd,[2]; fetuin binding assay,7.00
same,Particle size of aggregates,"[3]; water, 60° C.",up to 8000 nm
[6′SLN-Ap-Ad-Gly7-NHCH2]4C [Compound 53],Relative activity,[1],100
[HCl.H-Gly7-NHCH2-]4C [Compound 22a],Particle size,[3]; 50 mM solution in water,< 2.5 nm
same,Association state,[3]; after addition of 0.8M NaHCO3 solution,self-association of the compound is achieved
same,Average particle size,[3]; after addition of 50 μl 0.8M NaHCO3 solution,200-400 nm
same,Particle size,[3]; after subsequent addition of 50 μl 0.8M HCl,< 2.5 nm
same,Association state,[3]; water at 20° C.,non-associated form
"O=C(CCCCCNC(=O)CCCCCNC(=O)CCCCC(=O)NCCCO[C@@H]1O[C@H](CO)[C@H](O)[C@H](O[C@H]2O[C@H](CO)[C@H](O)[C@H](O)[C@H]2O)[C@H]1O)NCCCCCC(=O)NCC(=O)NCC(=O)NCC(=O)NCC(=O)NCC(=O)NCC(CNC(=O)CNC(=O)CNC(=O)CNC(=O)CNC(=O)CNC(=O)CCCCCNC(=O)CCCCCNC(=O)CCCCCNC(=O)CCCCC(=O)NCCCO[C@@H]1O[C@H](CO)[C@H](O)[C@H](O[C@H]2O[C@H](CO)[C@H](O)[C@H](O)[C@H]2O)[C@H]1O)(CNC(=O)CNC(=O)CNC(=O)CNC(=O)CNC(=O)CNC(=O)CCCCCNC(=O)CCCCCNC(=O)CCCCCNC(=O)CCCCC(=O)NCCCO[C@@H]1O[C@H](CO)[C@H](O)[C@H](O[C@H]2O[C@H](CO)[C@H](O)[C@H](O)[C@H]2O)[C@H]1O)CNC(=O)CNC(=O)CNC(=O)CNC(=O)CNC(=O)CNC(=O)CCCCCNC(=O)CCCCCNC(=O)CCCCCNC(=O)CCCCC(=O)NCCCO[C@@H]1O[C@H](CO)[C@H](O)[C@H](O[C@H]2O[C@H](CO)[C@H](O)[C@H](O)[C@H]2O)[C@H]1O [Compound 49, {Galα1-3Galβ1-O(CH2)3NH—CO(CH2)4CO—(NH(CH2)5CO)3—(NHCH2CO)5—NHCH2—]4C}x]",pIC50,PK15 cells,6.30
"CC(=O)N[C@H]1[C@H]([C@H](O)[C@H](O)CO)O[C@@](OCc2ccccc2)(C(=O)O)C[C@@H]1O [Neu5Acα-OBn, reference compound]",Relative activity,[2],1
same,pKd,[2]; fetuin binding assay,4.00
"CC(=O)N[C@H]1[C@H]([C@H](O)[C@H](O)CO)O[C@@](O[C@H]2[C@@H](O)[C@@H](CO)O[C@@H](O[C@H]3[C@H](O)[C@@H](O)C(O)O[C@@H]3CO)[C@@H]2O)(C(=O)O)C[C@@H]1O (some centres unmarked) [3'SL, reference compound]",Relative activity,"[4]; FBI test, 3'SL as reference compound (=1), specific activity per 3'SL group",1
same,pKd,"[4]; fetuin binding assay, inhibitor virus complex",4.70
[Neu5Ac-Gab-AC3-Ad-Gly5-NHCH2-]4C [Compound 47],"Aggregate, %",[5],96%
same,Relative activity,[2],1000
same,pKd,[2]; fetuin binding assay,7.00
[6′-SLN-Ap-Ad-AC2-Gly5-NHCH2]4C [Compound 54],Relative activity,[1],1000
"OC[C@H]1O[C@H](O[C@H]2[C@@H](O)[C@@H](CO)OC(O)[C@@H]2O)[C@H](O)[C@@H](O)[C@H]1O (some centres unmarked) [Galα1-3Gal, reference compound]",pIC50,PK15 cells,3.70
[Neu5Ac-Gab-Ad-AC2-Gly5-NHCH2-]4C [Compound 43],"Aggregate, %",[5],6%
same,Relative activity,[2],1000
same,pKd,[2]; fetuin binding assay,7.00
[Neu5Ac-Gab-AC2-Ad-Gly5-NHCH2-]4C [Compound 46],"Aggregate, %",[5],92%
same,Relative activity,[2],330
same,pKd,[2]; fetuin binding assay,6.52
"CC(=O)N[C@@H]1[C@@H](O)[C@H](O[C@@H]2O[C@H](CO[C@]3(C(=O)O)C[C@H](O)[C@@H](NC(C)=O)[C@H]([C@H](O)[C@H](O)CO)O3)[C@H](O)[C@H](O)[C@H]2O)[C@@H](CO)O[C@H]1NC(=O)CNC(=O)CCCCC(=O)NCC(=O)NCC(=O)NCC(=O)NCC(CNC(=O)CNC(=O)CNC(=O)CNC(=O)CCCCC(=O)NCC(=O)N[C@@H]1O[C@H](CO)[C@@H](O[C@@H]2O[C@H](CO[C@]3(C(=O)O)C[C@H](O)[C@@H](NC(C)=O)[C@H]([C@H](O)[C@H](O)CO)O3)[C@H](O)[C@H](O)[C@H]2O)[C@H](O)[C@H]1NC(C)=O)(CNC(=O)CNC(=O)CNC(=O)CNC(=O)CCCCC(=O)NCC(=O)N[C@@H]1O[C@H](CO)[C@@H](O[C@@H]2O[C@H](CO[C@]3(C(=O)O)C[C@H](O)[C@@H](NC(C)=O)[C@H]([C@H](O)[C@H](O)CO)O3)[C@H](O)[C@H](O)[C@H]2O)[C@H](O)[C@H]1NC(C)=O)CNC(=O)CNC(=O)CNC(=O)CNC(=O)CCCCC(=O)NCC(=O)N[C@@H]1O[C@H](CO)[C@@H](O[C@@H]2O[C@H](CO[C@]3(C(=O)O)C[C@H](O)[C@@H](NC(C)=O)[C@H]([C@H](O)[C@H](O)CO)O3)[C@H](O)[C@H](O)[C@H]2O)[C@H](O)[C@H]1NC(C)=O [{Neu5Acα2-6Galβ1-4GlcNAcβ1-NHCOCH2NH—CO(CH2)4CO—(NHCH2CO)3—NHCH2—}4C, reference compound]",Gel permeation HPLC peaks,"[5]; TSK-4000 column, 0.2M NaCl","only one peak is observed, which corresponds to the molecular weight of the monomer"
"CC(=O)N[C@H]1[C@H]([C@H](O)[C@H](O)CO)O[C@](OC[C@H]2O[C@@H](O[C@H]3[C@H](O)[C@@H](NC(C)=O)C(O)O[C@@H]3CO)[C@H](O)[C@@H](O)[C@H]2O)(C(=O)O)C[C@@H]1O (some centres unmarked) [6'SLN, reference compound]",Relative activity,[1],1
{[Neu5Acα2-3Galβ1-4Glcβ1-NHCOCH2NH—CO(CH2)4CO—(NHCH2CO)7—NHCH2—]4C}x [Compound 51],pKd,[4],7.00
same,Relative activity,[4],200
[Neu5Acα-OCH2(p-C6H4)NHCOCH2NH—CO(CH2)4CO—(NH(CH2)5CO)3—(NHCH2CO)5—NHCH2—]4C [Compound 44],"Aggregate, %",[5],54%
same,Relative activity,[2],2500
same,Increase in specific activity in comparison with free ligand Neu5AcαBn,[2]; fetuin binding assay,more than three orders of magnitude
same,pKd,[2]; fetuin binding assay,7.40
{[Neu5Acα2-3Galβ1-4Glcβ1-NHCOCH2NH—CO(CH2)4CO—(NHCH2CO)5—NHCH2—]4C}x [Compound 50],pKd,[4],6.00
same,Relative activity,[4],20
[Neu5Ac-Gab-AC-Ad-Gly5-NHCH2-]4C [Compound 45],"Aggregate, %",[5],12%
same,Relative activity,[2],15
same,pKd,[2]; fetuin binding assay,5.15
